Assay results reported in patent US20230295197A1, “STAT5 and STAT6 Degraders and Uses Thereof” (REGENTS OF THE UNIVERSITY OF MICHICAN, priority 2022, published 2023).

Target: T1, STAT6 (Homo sapiens, UniProt P42226)
T1 construct: endogenous in cells; host or cells: MOLM-16, KU-812, SKNO1, MB231, L1236
T1 sequence (P42226 1-847): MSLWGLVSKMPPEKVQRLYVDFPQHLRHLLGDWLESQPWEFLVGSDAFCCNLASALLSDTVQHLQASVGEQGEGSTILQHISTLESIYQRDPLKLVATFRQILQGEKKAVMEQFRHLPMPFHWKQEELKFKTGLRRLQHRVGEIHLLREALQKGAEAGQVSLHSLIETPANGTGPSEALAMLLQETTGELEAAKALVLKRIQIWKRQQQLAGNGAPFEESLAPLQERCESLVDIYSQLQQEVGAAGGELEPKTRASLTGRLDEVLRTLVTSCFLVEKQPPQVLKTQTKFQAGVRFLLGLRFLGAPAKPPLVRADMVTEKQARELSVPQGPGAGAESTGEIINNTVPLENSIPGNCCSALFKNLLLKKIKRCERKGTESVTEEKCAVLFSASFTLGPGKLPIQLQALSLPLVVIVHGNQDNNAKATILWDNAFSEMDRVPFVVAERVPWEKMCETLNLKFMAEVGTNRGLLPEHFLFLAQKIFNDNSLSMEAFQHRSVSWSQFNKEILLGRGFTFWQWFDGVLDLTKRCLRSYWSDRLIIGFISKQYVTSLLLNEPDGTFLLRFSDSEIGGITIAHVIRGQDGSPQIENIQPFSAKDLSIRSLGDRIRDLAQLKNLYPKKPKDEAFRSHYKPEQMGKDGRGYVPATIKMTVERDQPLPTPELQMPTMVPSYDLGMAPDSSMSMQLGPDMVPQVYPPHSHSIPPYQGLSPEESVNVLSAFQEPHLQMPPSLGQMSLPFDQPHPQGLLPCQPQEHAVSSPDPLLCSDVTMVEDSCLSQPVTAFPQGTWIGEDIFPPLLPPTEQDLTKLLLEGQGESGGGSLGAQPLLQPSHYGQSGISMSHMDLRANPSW
Experiment: Immunoblotting (Western blot) analysis of STAT6 degradation efficiency of degraders in treated cells
Assay type: cell-based
Conditions: L1236 cells, read-out: DC50 S6 L1236
How it was run: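 Cells (~1 million per point) treated with compounds at indicated concentrations and times, lysed in RIPA with protease/phosphatase inhibitors; 20-40 μg protein run on SDS-PAGE and blotted to PVDF. STAT6 or STAT5 rabbit mAbs with GAPDH loading control, IRDye secondaries; near-infrared fluorescence scan, band intensity quantified.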

O=C1CCC(N2Cc3cc(C#CCCCCCC(=O)N4CC[C@H]5CC[C@@H](C(=O)N6CC[C@@H](c7ccccc7)C6)N5C(=O)[C@@H](NC(=O)c5cc6cc(C(F)(F)P(=O)(O)O)ccc6s5)C4)ccc3C2=O)C(=O)N1 (stereo partly drawn) [Compound 574, ((2-(((5S,8S,10aR)-3-(8-(2-(2,6-dioxopiperidin-3-yl)-1-oxoisoindolin-5-yl)oct-7-ynoyl)-6-oxo-8-((S)-3-phenylpyrrolidine-1-carbonyl)decahydropyrrolo[1,2-a][1,5]diazocin-5-yl)carbamoyl)benzo[b]thiophen-5-yl)difluoromethyl)phosphonic acid] and Cc1ncsc1-c1ccc([C@H](C)NC(=O)[C@@H]2C[C@@H](O)CN2C(=O)[C@@H](NC(=O)CCNC(=O)COc2ccc3c(c2)CN(C(=O)[C@@H](NC(=O)c2cc4cc(C(F)(F)P(=O)(O)O)ccc4s2)C(C)(C)C)[C@H](C(=O)N2CCO[C@H](c4ccccc4)C2)C3)C(C)(C)C)cc1 [Compound 462, (difluoro(2-(((S)-1-((S)-7-(2-((3-(((S)-1-((2S,4R)-4-hydroxy-2-(((S)-1-(4-(4-methylthiazol-5-yl)phenyl)ethyl)carbamoyl)pyrrolidin-1-yl)-3,3-dimethyl-1-oxobutan-2-yl)amino)-3-oxopropyl)amino)-2-oxoethoxy)-3-((R)-2-phenylmorpholine-4-carbonyl)-3,4-dihydroisoquinolin-2(1H)-yl)-3,3-dimethyl-1-oxobutan-2-yl)carbamoyl)benzo[b]thiophen-5-yl)methyl)phosphonic acid] cannot be ordered by DC50: over 10 µM for the first, over 10 µM for the second.

Same assay, conditions: MOLM-16 cells, class symbols, read-out: DC50 S6 MOLM-16

CC(C)(C)[C@H](NC(=O)c1cc2cc(C(F)(F)P(=O)(O)O)ccc2s1)C(=O)N1C[C@@H](OCC(=O)NCCCC#Cc2ccc3c(c2)C(=O)N(C2CCC(=O)NC2=O)C3=O)C[C@H]1C(=O)N1CCC[C@H](c2ccccc2)C1 (stereo partly drawn) [Compound 498, ((2-(((2S)-1-((2S,4S)-4-(2-((5-(2-(2,6-dioxopiperidin-3-yl)-1,3-dioxoisoindolin-5-yl)pent-4-yn-1-yl)amino)-2-oxoethoxy)-2-((R)-3-phenylpiperidine-1-carbonyl)pyrrolidin-1-yl)-3,3-dimethyl-1-oxobutan-2-yl)carbamoyl)benzo[b]thiophen-5-yl)difluoromethyl)phosphonic acid] and CC(C)(C)[C@H](NC(=O)c1cc2cc(C(F)(F)P(=O)(O)O)ccc2s1)C(=O)N1C[C@@H](OCC(=O)NCC#Cc2ccc3c(c2)C(=O)N(C2CCC(=O)NC2=O)C3=O)C[C@H]1C(=O)N1CCC[C@H](c2ccccc2)C1 (stereo partly drawn) [Compound 494, ((2-(((2S)-1-((2S,4S)-4-(2-((3-(2-(2,6-dioxopiperidin-3-yl)-1,3-dioxoisoindolin-5-yl)prop-2-yn-1-yl)amino)-2-oxoethoxy)-2-((R)-3-phenylpiperidine-1-carbonyl)pyrrolidin-1-yl)-3,3-dimethyl-1-oxobutan-2-yl)carbamoyl)benzo[b]thiophen-5-yl)difluoromethyl)phosphonic acid] cannot be ordered by DC50: over 10 µM for the first, over 10 µM for the second.

CC(C)(C)[C@H](NC(=O)c1cc2cc(C(F)(F)P(=O)(O)O)ccc2s1)C(=O)N1Cc2cc(OCC(=O)NCCCCCCCCC#Cc3cccc4c3C(=O)N(C3CCC(=O)NC3=O)C4=O)ccc2C[C@H]1C(=O)N1CCO[C@H](c2ccccc2)C1 (stereo partly drawn) [Compound 545, ((2-(((2S)-1-((3S)-7-(2-((10-(2-(2,6-dioxopiperidin-3-yl)-1,3-dioxoisoindolin-4-yl)dec-9-yn-1-yl)amino)-2-oxoethoxy)-3-((R)-2-phenylmorpholine-4-carbonyl)-3,4-dihydroisoquinolin-2(1H)-yl)-3,3-dimethyl-1-oxobutan-2-yl)carbamoyl)benzo[b]thiophen-5-yl)difluoromethyl)phosphonic acid] and CC(C)(C)[C@H](NC(=O)c1cc2cc(C(F)(F)P(=O)(O)O)ccc2s1)C(=O)N1Cc2cc(OCC(=O)NCCCCC#Cc3cccc4c3C(=O)N(C3CCC(=O)NC3=O)C4=O)ccc2C[C@H]1C(=O)N1CCO[C@H](c2ccccc2)C1 (stereo partly drawn) [Compound 541, ((2-(((2S)-1-((3S)-7-(2-((6-(2-(2,6-dioxopiperidin-3-yl)-1,3-dioxoisoindolin-4-yl)hex-5-yn-1-yl)amino)-2-oxoethoxy)-3-((R)-2-phenylmorpholine-4-carbonyl)-3,4-dihydroisoquinolin-2(1H)-yl)-3,3-dimethyl-1-oxobutan-2-yl)carbamoyl)benzo[b]thiophen-5-yl)difluoromethyl)phosphonic acid] cannot be ordered by DC50: over 10 µM for the first, over 10 µM for the second.

Compared with O=C1CCC(N2Cc3cc(C#CCCCCCC(=O)N4CC[C@H]5CC[C@@H](C(=O)N6CC[C@@H](c7ccccc7)C6)N5C(=O)[C@@H](NC(=O)c5cc6cc(C(F)(F)P(=O)(O)O)ccc6s5)C4)ccc3C2=O)C(=O)N1 (stereo partly drawn) [Compound 574, ((2-(((5S,8S,10aR)-3-(8-(2-(2,6-dioxopiperidin-3-yl)-1-oxoisoindolin-5-yl)oct-7-ynoyl)-6-oxo-8-((S)-3-phenylpyrrolidine-1-carbonyl)decahydropyrrolo[1,2-a][1,5]diazocin-5-yl)carbamoyl)benzo[b]thiophen-5-yl)difluoromethyl)phosphonic acid], CC(C)(C)[C@H](NC(=O)c1cc2cc(C(F)(F)P(=O)(O)O)ccc2s1)C(=O)N1C[C@@H](OCC(=O)NCCCC#Cc2ccc3c(c2)C(=O)N(C2CCC(=O)NC2=O)C3=O)C[C@H]1C(=O)N1CCO[C@H](c2ccccc2)C1 (stereo partly drawn) [Compound 484, ((2-(((2S)-1-((2S,4S)-4-(2-((5-(2-(2,6-dioxopiperidin-3-yl)-1,3-dioxoisoindolin-5-yl)pent-4-yn-1-yl)amino)-2-oxoethoxy)-2-((R)-2-phenylmorpholine-4-carbonyl)pyrrolidin-1-yl)-3,3-dimethyl-1-oxobutan-2-yl)carbamoyl)benzo[b]thiophen-5-yl)difluoromethyl)phosphonic acid] is lower in DC50: over 10 µM for the first, 1 to 10 µM for the second.

CC(C)(C)[C@H](NC(=O)c1cc2cc(C(F)(F)P(=O)(O)O)ccc2s1)C(=O)N1CCN(C(=O)CC(=O)NCCCCCCCCCC#Cc2ccc3c(c2)C(=O)N(C2CCC(=O)NC2=O)C3=O)C[C@H]1C(=O)N1CCO[C@H](c2ccccc2)C1 (stereo partly drawn) [Compound 520, ((2-(((2S)-1-((2S)-4-(3-((11-(2-(2,6-dioxopiperidin-3-yl)-1,3-dioxoisoindolin-5-yl)undec-10-yn-1-yl)amino)-3-oxopropanoyl)-2-((R)-2-phenylmorpholine-4-carbonyl)piperazin-1-yl)-3,3-dimethyl-1-oxobutan-2-yl)carbamoyl)benzo[b]thiophen-5-yl)difluoromethyl)phosphonic acid] and CC(C)(C)[C@H](NC(=O)c1cc2cc(C(F)(F)P(=O)(O)O)ccc2s1)C(=O)N1C[C@@H](OCC(=O)NCCC#Cc2ccc3c(c2)C(=O)N(C2CCC(=O)NC2=O)C3=O)C[C@H]1C(=O)N1CCO[C@H](c2ccccc2)C1 (stereo partly drawn) [Compound 482, ((2-(((2S)-1-((2S,4S)-4-(2-((4-(2-(2,6-dioxopiperidin-3-yl)-1,3-dioxoisoindolin-5-yl)but-3-yn-1-yl)amino)-2-oxoethoxy)-2-((R)-2-phenylmorpholine-4-carbonyl)pyrrolidin-1-yl)-3,3-dimethyl-1-oxobutan-2-yl)carbamoyl)benzo[b]thiophen-5-yl)difluoromethyl)phosphonic acid] cannot be ordered by DC50: over 10 µM for the first, over 10 µM for the second.

Cc1ncsc1-c1ccc([C@H](C)NC(=O)[C@@H]2C[C@@H](O)CN2C(=O)[C@@H](NC(=O)CCNC(=O)COc2ccc3c(c2)CN(C(=O)[C@@H](NC(=O)c2cc4cc(C(F)(F)P(=O)(O)O)ccc4s2)C(C)(C)C)[C@H](C(=O)N2CCO[C@H](c4ccccc4)C2)C3)C(C)(C)C)cc1 [Compound 462, (difluoro(2-(((S)-1-((S)-7-(2-((3-(((S)-1-((2S,4R)-4-hydroxy-2-(((S)-1-(4-(4-methylthiazol-5-yl)phenyl)ethyl)carbamoyl)pyrrolidin-1-yl)-3,3-dimethyl-1-oxobutan-2-yl)amino)-3-oxopropyl)amino)-2-oxoethoxy)-3-((R)-2-phenylmorpholine-4-carbonyl)-3,4-dihydroisoquinolin-2(1H)-yl)-3,3-dimethyl-1-oxobutan-2-yl)carbamoyl)benzo[b]thiophen-5-yl)methyl)phosphonic acid] gave a DC50 of over 10 µM.

Same assay, conditions: MOLM-16 cells, numeric bound, read-out: DC50 S6 MOLM-16

For CC(C)(C)[C@H](NC(=O)c1cc2cc(C(F)(F)P(=O)(O)O)ccc2s1)C(=O)N1C[C@@H](OCCCCCCNc2cccc3c2CN(C2CCC(=O)NC2=O)C3=O)C[C@H]1C(=O)N1CCO[C@H](c2ccccc2)C1 (stereo partly drawn) [Compound 599, ((2-(((2S)-1-((2S,4S)-4-((6-((2-(2,6-dioxopiperidin-3-yl)-1-oxoisoindolin-4-yl)amino)hexyl)oxy)-2-((R)-2-phenylmorpholine-4-carbonyl)pyrrolidin-1-yl)-3,3-dimethyl-1-oxobutan-2-yl)carbamoyl)benzo[b]thiophen-5-yl)difluoromethyl)phosphonic acid], the DC50 was over 0.3 µM.
